# System: Acar3
# Assay type: binding, great reed warbler Acrocephalus arundinaceus
# Settings: for Stability T½ (h), peptide - Acar3: Table S5, half-life estimated from dissociation in scintillation proximity assay; for Stability T½ of Acar3 in complex with the peptide: Table S1, top 94 PSCPL-scoring peptides, SPA, 10µM peptide, 125I β2m, folding over night at 18°C, dissociation measured up to 24 hours at 37°C
Sequence,"Stability T½ (h), peptide - Acar3 [h]",Stability T½ of Acar3 in complex with the peptide [min]
AANMYIYPL [9-mer peptide],0.1,–
AEMRETHWL [9-mer peptide],5.0,300
AKIEAPLLL [9-mer peptide],2.5,150
AMAAGLSSL [9-mer peptide],0.3,18
AMMWRIAQL [9-mer peptide],0.3,18
AMPKTIYEL [9-mer peptide],3.8,228
AVMFFPFWF [9-mer peptide],0.6,36
ETMKPAAMV [9-mer peptide],2.7,162
FHMSKPSDL [9-mer peptide],0.8,48
FLDKGTYTL [9-mer peptide],0.3,18
FLLENAAYL [9-mer peptide],1.2,72
FLQGAKWYL [9-mer peptide],0.1,–
FMFDYIPPV [9-mer peptide],0.2,–
FMIVNNFPV [9-mer peptide],0.3,18
FQANMFLTL [9-mer peptide],1.2,72
FQMGGIGPM [9-mer peptide],0.7,42
FRMLAWHVL [9-mer peptide],0.3,18
GAMYALANF [9-mer peptide],0.6,36
GLAATSFPL [9-mer peptide],1.5,90
GMNVTAPAL [9-mer peptide],0.3,18
GMVGAEFSL [9-mer peptide],7.6,456
GRLVTVNPF [9-mer peptide],0.5,30
HELSLFWPL [9-mer peptide],1.1,66
ILMEHIHKL [9-mer peptide],0.2,12
IMDASSFTL [9-mer peptide],1.4,84

Sequence,"Stability T½ (h), peptide - Acar3 [h]",Stability T½ of Acar3 in complex with the peptide [min]
KAMRPWQSF [9-mer peptide],0.4,24
KAMSTPFSL [9-mer peptide],5.3,318
KIMQVDRPM [9-mer peptide],2.6,156
KLMDVVYSI [9-mer peptide],0.4,24
KMAAFPETL [9-mer peptide],0.4,24
KMNAKAATL [9-mer peptide],2.1,126
KQLELFWVI [9-mer peptide],0.2,–
KQLESVMYL [9-mer peptide],1.3,78
KQLEYSWVL [9-mer peptide],0.1,–
KQMSQPYAV [9-mer peptide],4.0,240
KTAAAAAAF [9-mer peptide],0.4,24
KTMMQAHDL [9-mer peptide],9.9,594
LDMNVVKEL [9-mer peptide],0.6,36
LMDENTYAM [9-mer peptide],0.4,24
LMMNGTSAM [9-mer peptide],0.8,48
LPLPAQQPF [9-mer peptide],0.3,18
LPRWPPPQL [9-mer peptide],0.3,18
LQMLGENVL [9-mer peptide],2.6,156
LRWLAKSFF [9-mer peptide],0.5,30
LTMNLVSDI [9-mer peptide],4.5,270
MMMPMFNAF [9-mer peptide],7.2,432
MMMSTAVAF [9-mer peptide],7.3,438
MMWATAQAL [9-mer peptide],0.8,48
MPMSMPIPM [9-mer peptide],3.2,192
MTYKAAFDL [9-mer peptide],1.8,108

# — PMC10360169 (Frontiers in Immunology, 2023)
